Reference: patent US20240327364A1, “THERAPEUTIC TARGETING OF GPR68 TO INDUCE FERROPTOSIS” (University Of Maryland, Baltimore, priority 2023, published 2024)
Read-outs that look alike come from different tables or passages of the source.

Key:
ADCK4 = target: T1, ADCK4 (Homo sapiens, UniProt Q96D53); test: KinomeScan; type: binding; details: read-out: % Control
T1 construct: purchased DiscoveRx (Fremont, CA)

[1] = target: T2, EGFR(L747-E749del, A750P) (Homo sapiens, UniProt P00533, A750P/DEL747-749); test: KinomeScan; type: binding; details: read-out: % Control
T2 construct: purchased DiscoveRx (Fremont, CA), KinomeScan service

ERBB4 = target: T3, ERBB4 (Homo sapiens, UniProt Q15303); test: KinomeScan; type: binding; details: read-out: % Control
T3 construct: purchased DiscoveRx (Fremont, CA)

FER = target: T4, FER (Homo sapiens, UniProt P16591); test: KinomeScan; type: binding; details: read-out: % Control
T4 construct: purchased DiscoveRx (Fremont, CA)

HPK1 = target: T5, HPK1 (Homo sapiens, UniProt Q92918); test: KinomeScan; type: binding; details: read-out: % Control
T5 construct: purchased DiscoveRx (Fremont, CA)
T5 sequence (Q92918 whole entry): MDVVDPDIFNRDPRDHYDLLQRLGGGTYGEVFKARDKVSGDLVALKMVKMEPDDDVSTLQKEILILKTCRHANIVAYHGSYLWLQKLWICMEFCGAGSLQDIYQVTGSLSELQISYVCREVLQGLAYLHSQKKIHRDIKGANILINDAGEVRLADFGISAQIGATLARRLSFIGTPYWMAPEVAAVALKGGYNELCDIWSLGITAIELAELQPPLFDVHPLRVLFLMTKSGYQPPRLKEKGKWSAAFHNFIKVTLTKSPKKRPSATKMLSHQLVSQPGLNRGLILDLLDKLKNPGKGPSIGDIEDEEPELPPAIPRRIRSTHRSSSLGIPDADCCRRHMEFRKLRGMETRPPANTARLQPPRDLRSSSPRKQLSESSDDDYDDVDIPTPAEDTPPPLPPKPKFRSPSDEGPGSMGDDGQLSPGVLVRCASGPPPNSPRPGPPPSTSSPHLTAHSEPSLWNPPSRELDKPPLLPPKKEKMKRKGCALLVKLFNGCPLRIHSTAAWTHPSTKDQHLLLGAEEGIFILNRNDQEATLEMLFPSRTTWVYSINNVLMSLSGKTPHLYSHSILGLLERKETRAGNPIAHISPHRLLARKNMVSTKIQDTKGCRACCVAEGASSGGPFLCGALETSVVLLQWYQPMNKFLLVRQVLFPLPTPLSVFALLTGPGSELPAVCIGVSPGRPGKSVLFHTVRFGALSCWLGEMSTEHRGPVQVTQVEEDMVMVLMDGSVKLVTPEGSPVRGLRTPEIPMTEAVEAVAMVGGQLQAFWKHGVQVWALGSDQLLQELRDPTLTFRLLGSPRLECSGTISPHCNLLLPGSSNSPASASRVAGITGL

IKK-epsilon = target: T6, IKK-epsilon (Homo sapiens, UniProt Q14164); test: KinomeScan; type: binding; details: read-out: % Control
T6 construct: purchased DiscoveRx (Fremont, CA)

MRCKA = target: T7, MRCKA (Homo sapiens, UniProt Q5VT25); test: KinomeScan; type: binding; details: read-out: % Control
T7 construct: purchased DiscoveRx

MST4 = target: T8, MST4 (Homo sapiens, UniProt Q9P289); test: KinomeScan; type: binding; details: read-out: % Control
T8 construct: purchased DiscoveRx

PFPK5(P. falciparum) = target: T9, PFPK5(P. falciparum) (Plasmodium falciparum, UniProt P61075); test: KinomeScan; type: binding; details: read-out: % Control
T9 construct: purchased DiscoveRx (Fremont, CA)

PHKG1 = target: T10, PHKG1 (Homo sapiens, UniProt Q16816); test: KinomeScan; type: binding; details: read-out: % Control
T10 construct: purchased DiscoveRx (Fremont, CA)
T10 sequence (Q16816 whole entry): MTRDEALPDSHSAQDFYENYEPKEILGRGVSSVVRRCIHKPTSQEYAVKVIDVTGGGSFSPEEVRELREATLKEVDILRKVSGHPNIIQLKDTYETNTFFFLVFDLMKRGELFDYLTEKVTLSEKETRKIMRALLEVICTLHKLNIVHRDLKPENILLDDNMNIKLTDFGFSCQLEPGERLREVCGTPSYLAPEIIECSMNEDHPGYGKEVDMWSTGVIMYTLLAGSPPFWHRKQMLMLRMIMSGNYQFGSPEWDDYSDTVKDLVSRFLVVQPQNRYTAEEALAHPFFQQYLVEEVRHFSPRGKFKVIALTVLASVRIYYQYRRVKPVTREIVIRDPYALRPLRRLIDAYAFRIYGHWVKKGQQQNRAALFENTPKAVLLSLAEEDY

PKAC-alpha = target: T11, PKAC-alpha (Homo sapiens, UniProt P17612); test: KinomeScan; type: binding; details: read-out: % Control
T11 construct: purchased DiscoveRx (Fremont, CA)

RAF1 = target: T12, RAF1 (Homo sapiens, UniProt P04049); test: KinomeScan; type: binding; details: read-out: % Control
T12 construct: purchased DiscoveRx (Fremont, CA)
T12 sequence (P04049 whole entry): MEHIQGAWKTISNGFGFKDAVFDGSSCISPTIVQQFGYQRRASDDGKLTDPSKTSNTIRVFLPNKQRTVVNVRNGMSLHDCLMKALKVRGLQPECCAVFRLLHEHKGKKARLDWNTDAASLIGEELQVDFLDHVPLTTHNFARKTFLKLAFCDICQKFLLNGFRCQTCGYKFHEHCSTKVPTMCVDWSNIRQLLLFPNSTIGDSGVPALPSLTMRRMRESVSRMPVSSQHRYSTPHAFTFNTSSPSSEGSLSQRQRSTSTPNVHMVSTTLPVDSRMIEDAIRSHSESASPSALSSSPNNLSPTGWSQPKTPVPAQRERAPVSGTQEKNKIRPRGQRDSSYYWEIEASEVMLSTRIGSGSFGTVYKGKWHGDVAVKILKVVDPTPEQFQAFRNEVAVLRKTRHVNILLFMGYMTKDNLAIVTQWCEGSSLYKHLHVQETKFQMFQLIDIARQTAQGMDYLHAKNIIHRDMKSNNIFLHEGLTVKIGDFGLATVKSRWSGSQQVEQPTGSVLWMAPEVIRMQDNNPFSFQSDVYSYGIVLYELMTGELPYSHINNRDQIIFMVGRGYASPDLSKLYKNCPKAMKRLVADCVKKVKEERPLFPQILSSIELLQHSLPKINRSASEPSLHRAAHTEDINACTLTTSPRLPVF

[2] = target: T13, RSK3(Kin.Dom.2-C-terminal) (Homo sapiens, UniProt Q15349); test: KinomeScan; type: binding; details: read-out: % Control
T13 construct: RSK3(Kin.Dom.2-C-terminal); purchased DiscoveRx (Fremont, CA)

TIE2 = target: T14, TIE2 (Homo sapiens, UniProt Q02763); test: KinomeScan; type: binding; details: read-out: % Control
T14 construct: purchased DiscoveRx (Fremont, CA)
T14 sequence (Q02763 23-1124): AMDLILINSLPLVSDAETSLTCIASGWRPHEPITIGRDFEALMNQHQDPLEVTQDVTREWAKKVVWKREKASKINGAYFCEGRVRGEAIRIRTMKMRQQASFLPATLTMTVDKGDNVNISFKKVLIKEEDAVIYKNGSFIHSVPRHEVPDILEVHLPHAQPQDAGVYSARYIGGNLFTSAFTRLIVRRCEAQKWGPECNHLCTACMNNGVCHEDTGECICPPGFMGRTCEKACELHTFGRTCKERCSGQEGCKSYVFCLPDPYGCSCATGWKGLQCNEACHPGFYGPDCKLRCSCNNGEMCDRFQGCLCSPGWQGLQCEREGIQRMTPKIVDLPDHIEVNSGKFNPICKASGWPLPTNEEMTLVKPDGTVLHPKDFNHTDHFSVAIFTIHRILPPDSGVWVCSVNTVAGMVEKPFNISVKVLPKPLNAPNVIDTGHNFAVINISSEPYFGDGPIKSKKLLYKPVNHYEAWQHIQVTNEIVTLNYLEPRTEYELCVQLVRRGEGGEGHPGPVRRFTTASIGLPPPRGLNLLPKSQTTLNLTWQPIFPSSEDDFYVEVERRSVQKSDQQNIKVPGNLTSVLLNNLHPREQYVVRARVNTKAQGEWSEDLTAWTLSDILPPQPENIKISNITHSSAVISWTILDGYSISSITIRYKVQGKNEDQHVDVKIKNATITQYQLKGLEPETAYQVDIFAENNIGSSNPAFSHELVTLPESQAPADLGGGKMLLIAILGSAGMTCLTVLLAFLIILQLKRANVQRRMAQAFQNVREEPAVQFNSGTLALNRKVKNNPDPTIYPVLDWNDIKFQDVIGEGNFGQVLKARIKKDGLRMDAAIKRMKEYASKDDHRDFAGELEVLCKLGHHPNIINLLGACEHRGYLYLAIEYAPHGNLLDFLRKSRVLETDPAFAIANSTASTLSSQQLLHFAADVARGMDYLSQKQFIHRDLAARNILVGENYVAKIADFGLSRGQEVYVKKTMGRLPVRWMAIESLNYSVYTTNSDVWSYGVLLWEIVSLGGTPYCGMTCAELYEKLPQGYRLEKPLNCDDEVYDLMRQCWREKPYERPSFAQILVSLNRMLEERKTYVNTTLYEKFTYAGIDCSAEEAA

5-HT4B = target: T15, 5-HT4B (Homo sapiens, UniProt Q13639); test: GPCR Profiler; type: cell-based
T15 construct: host or cells: Chem-1 cells with promiscuous Gα15
T15 sequence (Q13639 whole entry): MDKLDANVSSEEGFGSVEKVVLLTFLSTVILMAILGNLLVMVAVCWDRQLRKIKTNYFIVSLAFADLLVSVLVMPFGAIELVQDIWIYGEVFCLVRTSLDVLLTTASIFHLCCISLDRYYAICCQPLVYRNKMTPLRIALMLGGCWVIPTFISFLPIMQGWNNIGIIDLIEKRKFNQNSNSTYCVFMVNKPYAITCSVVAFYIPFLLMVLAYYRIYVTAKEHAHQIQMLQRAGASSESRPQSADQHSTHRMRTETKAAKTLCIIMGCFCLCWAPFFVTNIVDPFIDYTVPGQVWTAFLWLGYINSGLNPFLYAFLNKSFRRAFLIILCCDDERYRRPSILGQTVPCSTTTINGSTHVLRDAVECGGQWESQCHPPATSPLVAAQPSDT

CCR4 = target: T16, CCR4 (Homo sapiens, UniProt P51679); test: GPCR Profiler; type: cell-based
T16 construct: host or cells: Chem-1 cells with Gα15
T16 sequence (P51679 whole entry): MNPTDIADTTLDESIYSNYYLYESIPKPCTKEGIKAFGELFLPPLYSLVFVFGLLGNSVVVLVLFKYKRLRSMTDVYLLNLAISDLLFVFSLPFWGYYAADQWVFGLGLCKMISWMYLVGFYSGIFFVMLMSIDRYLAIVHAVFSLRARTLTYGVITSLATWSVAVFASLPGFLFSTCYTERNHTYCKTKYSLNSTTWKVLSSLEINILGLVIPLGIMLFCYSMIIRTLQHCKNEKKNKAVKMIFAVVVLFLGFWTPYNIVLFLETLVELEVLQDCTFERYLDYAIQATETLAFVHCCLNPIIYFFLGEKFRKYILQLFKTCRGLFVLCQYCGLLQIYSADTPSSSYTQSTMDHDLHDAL

FPR1 = target: T17, FPR1 (Homo sapiens, UniProt P21462); test: GPCR Profiler; type: cell-based
T17 construct: host or cells: Chem-1 cells expressing Gα15
T17 sequence (P21462 whole entry): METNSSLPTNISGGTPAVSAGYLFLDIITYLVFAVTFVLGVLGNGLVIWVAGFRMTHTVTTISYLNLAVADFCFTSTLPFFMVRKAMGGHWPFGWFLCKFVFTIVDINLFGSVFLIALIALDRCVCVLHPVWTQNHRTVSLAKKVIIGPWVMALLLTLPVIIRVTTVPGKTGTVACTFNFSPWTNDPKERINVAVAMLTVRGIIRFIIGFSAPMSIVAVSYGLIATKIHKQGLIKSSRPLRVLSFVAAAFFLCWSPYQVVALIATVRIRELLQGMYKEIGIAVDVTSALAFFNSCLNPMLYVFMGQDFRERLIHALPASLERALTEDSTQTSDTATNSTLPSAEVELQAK

GLP-1 = target: T18, GLP-1 (Homo sapiens, UniProt P43220); test: GPCR Profiler; type: cell-based
T18 construct: host or cells: Chem-1 cells expressing Gα15
T18 sequence (P43220 24-463): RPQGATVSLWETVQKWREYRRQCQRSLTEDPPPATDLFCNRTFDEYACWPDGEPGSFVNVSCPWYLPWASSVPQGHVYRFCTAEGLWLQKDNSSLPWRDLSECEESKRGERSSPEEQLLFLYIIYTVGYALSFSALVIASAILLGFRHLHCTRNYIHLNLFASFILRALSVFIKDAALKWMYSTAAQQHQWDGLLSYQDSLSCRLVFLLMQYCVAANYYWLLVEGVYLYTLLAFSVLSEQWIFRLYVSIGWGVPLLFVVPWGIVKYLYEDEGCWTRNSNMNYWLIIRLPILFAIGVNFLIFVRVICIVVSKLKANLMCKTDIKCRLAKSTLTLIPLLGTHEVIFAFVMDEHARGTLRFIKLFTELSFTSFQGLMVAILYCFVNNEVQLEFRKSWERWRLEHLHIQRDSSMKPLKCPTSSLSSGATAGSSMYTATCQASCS

GPR91 = target: T19, GPR91 (Homo sapiens, UniProt Q9BXA5); test: GPCR Profiler; type: cell-based
T19 construct: host or cells: Chem-1 cells with promiscuous Gα15
T19 sequence (Q9BXA5 whole entry, species assumed): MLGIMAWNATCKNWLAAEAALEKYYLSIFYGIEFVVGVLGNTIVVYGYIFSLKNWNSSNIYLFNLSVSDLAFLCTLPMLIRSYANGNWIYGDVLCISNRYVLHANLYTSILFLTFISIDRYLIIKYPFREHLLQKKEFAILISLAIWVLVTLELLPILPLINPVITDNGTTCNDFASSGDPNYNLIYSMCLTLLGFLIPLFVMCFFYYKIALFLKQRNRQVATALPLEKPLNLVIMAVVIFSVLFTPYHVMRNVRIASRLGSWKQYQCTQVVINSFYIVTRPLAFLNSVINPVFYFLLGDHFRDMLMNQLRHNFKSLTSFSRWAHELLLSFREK

HCT 116 = test: Cell Titer-Glo viability, Colorectal adenocarcinoma; type: cell-based; details: 72 hours
Procedure: (§1) OGM2 kills wide variety of cancer cell types. Cell sensitivity can be classified in to Very Sensitive (LC50<2 μM), Sensitive (LC50=2 to 10 μM), Mildly Sensitive (LC50>10 μM), and Refractory (no killing at 10 μM). The listed established cell were incubated with OGM2 at 2 μM or 10 μM for 72 hours under standard cell culture conditions, and relative cell number was assessed using Cell Titer-Glo Luminescent Cell Viability Assay (Promega™) following the manufacturer's instructions. Luminescence was determined using a Cytation 5 reader and Gen5 software package (BioTek™).
(§2) Cancer cells, which are very sensitive to killing by OGM2 (LCs <2 μM), with reported mRNA expression of GPR68 and the related proton sensing receptor GPR4. LC50's (concentrations causing 50% lethality) were determined using CellTiter-Glo (Promega™, G7570). Cells were plated in 12-well plates (CELLTREAT Scientific Products, 229112) in 1 ml of DMEM with high glucose, GlutaMAX, HEPES, or RPMI 1640 with Penicillin-Streptomycin (ThermoFisher™, 10564029, 11875119 and 15140122) and 10% FBS. Cells were incubated overnight at 37° C. in 5% CO2. Then 1 mL of fresh media was added with DMSO, OGM, or positive control (Erastin; APExBIO Technology, LLC, B1524) and cells incubated for 3 days. On the third day, all media was removed, cells were rinsed with 1×PBS, PBS was removed, and 200 μL of 1× Passive Lysis Buffer (Promega™, E1941) was added to each well. […]. Subsequently, 20 μL of lysate was added to 100 μL CellTiter-Glo™ reagent on a LUMITRAC 200 plate (Greiner™ bio-one, 82050-726). Plates were briefly spun down and read on a GloMax-Multi Detection System (Promega™).
(§3) The cells listed in the tables above were incubated with OGM2 at 2 μM or 10 μM for 72 hours under standard cell culture conditions, and relative cell number was assessed using Cell Titer-Glo Luminescent Cell Viability Assay (Promega™) following the manufacturer's instructions. Luminescence was determined using a Cytation 5 reader and Gen5 software package (BioTek™). RNA expression of GPR68 and GPR4 in the corresponding cancer cell lines are listed, according to the publicly available The Human Protein Atlas version 22.0 and Ensembl version 103.38 (see proteinatlas.org). The consensus normalized expression value (“nTPM”=normalize transcript per million) was calculated as the maximum nTPM value for each gene in the two data sources.

RKO = test: as above; type: cell-based
Procedure: as §1, §2, §3

GPR68 = GPR68 (Homo sapiens, UniProt Q15743); test: Acid-induced calcium response, GPR68-transfected HEK293 cells; type: cell-based

CCc1ccc2c(c1)C1(NN=C(c3cccc4ccccc34)S1)C(=O)N2 (stereo not drawn) [OGM1, 5-ethyl-5′-naphthalen-1-ylspiro[1H-indole-3,2′-3H-1,3,4-thiadiazole]-2-one]
remaining binding at 10 µM (ADCK4): 70% | remaining binding at 10 µM [1]: 91% | remaining binding at 10 µM (ERBB4): 100% | remaining binding at 10 µM (FER): 100% | remaining binding at 10 µM (HPK1): 100% | remaining binding at 10 µM (IKK-epsilon): 100% | remaining binding at 10 µM (MRCKA): 78% | remaining binding at 10 µM (MST4): 81% | remaining binding at 10 µM (PFPK5(P. falciparum)): 82% | remaining binding at 10 µM (PHKG1): 91% | remaining binding at 10 µM (PKAC-alpha): 95% | remaining binding at 10 µM (RAF1): 100% | remaining binding at 10 µM [2]: 54% | remaining binding at 10 µM (TIE2): 100% | Antagonism (5-HT4B; 10 uM): −24.1 | Agonism (5-HT4B; 12.5 uM): 4.1 | Antagonism (CCR4; 10 uM): −4.1 | Agonism (CCR4; 12.5 uM): −0.7 | Antagonism (FPR1; 10 uM): 14.3 | Agonism (FPR1; 12.5 uM): −0.2 | Antagonism (GLP-1; 10 uM): 2.1 | Agonism (GLP-1; 12.5 uM): −0.3 | Antagonism (GPR91; 10 uM): −5.4 | Agonism (GPR91; 12.5 uM): 1.2

CCc1ccc2c(c1)C1(NN=C(c3ccccc3)S1)C(=O)N2 (stereo not drawn) [OGM2]
% Survival 2 μM OGM (HCT 116): 44.5% | % Survival 10 μM OGM (HCT 116): 32.7% | CC50 (HCT 116; Homo sapiens, HCT-116, read-out: LC50 (the source's name)): < 2 µM | Class (RKO): Mildly | % Survival 2 μM OGM (RKO; 72 hours): 92.4% | % Survival 10 μM OGM (RKO; 72 hours): 57.6% | CC50 (RKO; Homo sapiens, RKO, 72 hours, read-out: LC50 (the source's name)): > 10 µM | Class (RKO; Table 13): Low | calcium response to extracellular acidification (GPR68): inhibited
